# Patent US20020052295A1, “Diacyl derivatives of propylene diamine having herbicidal activity” (priority 1999, published 2002)
# How the values were obtained:
# ABUTH [1] = assay: Pre-emergence herbicidal activity on ABUTH (velvetleaf); format: in vivo, Abutilon theophrasti
# In short: (§1)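 GR80 from percent growth inhibition versus untreated controls, rated about 14 days after planting and pre-emergence soil-surface application. Compound applied in 50:50 acetone:water over freshly covered seeds; pots kept in greenhouse at 30/21 °C day/night.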
# SOLNI [2] = assay: Pre-emergence herbicidal activity on SOLNI (black nightshade); format: in vivo, Solanum nigrum
# In short: as §1
# AMARE [3] = assay: Pre-emergence herbicidal activity on AMARE (redroot pigweed); format: in vivo, Amaranthus retroflexus
# In short: as §1
# DATST [4] = assay: Pre-emergence herbicidal activity on DATST (jimsonweed); format: in vivo, Datura stramonium
# In short: as §1
# CHEAL [5] = assay: Pre-emergence herbicidal activity on CHEAL (common lambsquarters); format: in vivo, Chenopodium album
# In short: as §1
# CONAR [6] = assay: Pre-emergence herbicidal activity on CONAR (field bindweed); format: in vivo, Convolvulus arvensis
# In short: as §1
# POROL [7] = assay: Pre-emergence herbicidal activity on POROL (common purslane); format: in vivo, Portulaca oleracea
# In short: as §1
# CIRAR = assay: Pre-emergence herbicidal activity on CIRAR (canada thistle, seedling); format: in vivo, Cirsium arvense
# In short: as §1
# ECHCG [8] = assay: Pre-emergence herbicidal activity on ECHCG (barnyardgrass); format: in vivo, Echinochloa crus-galli
# In short: as §1
# PANMI [9] = assay: Pre-emergence herbicidal activity on PANMI (wild proso millet); format: in vivo, Panicum miliaceum
# In short: as §1
# SORHA [10] = assay: Pre-emergence herbicidal activity on SORHA (johnsongrass, seedling); format: in vivo, Sorghum halepense
# In short: as §1
# SETFA [11] = assay: Pre-emergence herbicidal activity on SETFA (giant foxtail); format: in vivo, Setaria faberi
# In short: as §1
# PANDI [12] = assay: Pre-emergence herbicidal activity on PANDI (fall panicum); format: in vivo, Panicum dichotomiflorum
# In short: as §1
# SORVU [13] = assay: Pre-emergence herbicidal activity on SORVU (shattercane); format: in vivo, Sorghum vulgare
# In short: as §1
# BRAPP [14] = assay: Pre-emergence herbicidal activity on BRAPP (broadleaf signalgrass); format: in vivo, Brachiaria platyphylla
# In short: as §1
# DIGSA [15] = assay: Pre-emergence herbicidal activity on DIGSA (large crabgrass); format: in vivo, Digitaria sanguinalis
# In short: as §1
# ABUTH [16] = assay: Post-emergence herbicidal activity on ABUTH (velvetleaf); format: in vivo, Abutilon theophrasti; details: post-emergence spray; lowest tested rate with 80% or greater inhibition; about 14 days after treatment
# In short: (§2)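 Seedlings grown from seed in topsoil pots in the greenhouse were sprayed post-emergence 9 to 14 days after planting. Compounds in 50:50 acetone/water were applied at 3,100 l/ha and 511 kPa. Percent inhibition versus unsprayed controls was scored about 14 days later at 30/21° C day/night.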
# SOLNI [17] = assay: Post-emergence herbicidal activity on SOLNI (black nightshade); format: in vivo, Solanum nigrum; details: post-emergence spray; lowest tested rate with 80% or greater inhibition; about 14 days after treatment
# In short: as §2
# AMARE [18] = assay: Post-emergence herbicidal activity on AMARE (redroot pigweed); format: in vivo, Amaranthus retroflexus; details: post-emergence spray; lowest tested rate with 80% or greater inhibition; about 14 days after treatment
# In short: as §2
# DATST [19] = assay: Post-emergence herbicidal activity on DATST (jimsonweed); format: in vivo, Datura stramonium; details: post-emergence spray; lowest tested rate with 80% or greater inhibition; about 14 days after treatment
# In short: as §2
# CHEAL [20] = assay: Post-emergence herbicidal activity on CHEAL (common lambsquarters); format: in vivo, Chenopodium album; details: post-emergence spray; lowest tested rate with 80% or greater inhibition; about 14 days after treatment
# In short: as §2
# CONAR [21] = assay: Post-emergence herbicidal activity on CONAR (field bindweed); format: in vivo, Convolvulus arvensis; details: post-emergence spray; lowest tested rate with 80% or greater inhibition; about 14 days after treatment
# In short: as §2
# POROL [22] = assay: Post-emergence herbicidal activity on POROL (common purslane; table head prints PORAL); format: in vivo, Portulaca oleracea; details: post-emergence spray; lowest tested rate with 80% or greater inhibition; about 14 days after treatment
# In short: as §2
# ECHCG [23] = assay: Post-emergence herbicidal activity on ECHCG (barnyardgrass); format: in vivo, Echinochloa crus-galli; details: post-emergence spray; lowest tested rate with 80% or greater inhibition; about 14 days after treatment
# In short: as §2
# PANMI [24] = assay: Post-emergence herbicidal activity on PANMI (wild proso millet); format: in vivo, Panicum miliaceum; details: post-emergence spray; lowest tested rate with 80% or greater inhibition; about 14 days after treatment
# SORHA [25] = assay: Post-emergence herbicidal activity on SORHA (johnsongrass, seedling); format: in vivo, Sorghum halepense; details: post-emergence spray; lowest tested rate with 80% or greater inhibition; about 14 days after treatment
# In short: as §2
# SETFA [26] = assay: Post-emergence herbicidal activity on SETFA (giant foxtail); format: in vivo, Setaria faberi; details: post-emergence spray; lowest tested rate with 80% or greater inhibition; about 14 days after treatment
# In short: as §2
# PANDI [27] = assay: Post-emergence herbicidal activity on PANDI (fall panicum); format: in vivo, Panicum dichotomiflorum; details: post-emergence spray; lowest tested rate with 80% or greater inhibition; about 14 days after treatment
# In short: as §2
# SORVU [28] = assay: Post-emergence herbicidal activity on SORVU (shattercane); format: in vivo, Sorghum vulgare; details: post-emergence spray; lowest tested rate with 80% or greater inhibition; about 14 days after treatment
# In short: as §2
# BRAPP [29] = assay: Post-emergence herbicidal activity on BRAPP (broadleaf signalgrass); format: in vivo, Brachiaria platyphylla; details: post-emergence spray; lowest tested rate with 80% or greater inhibition; about 14 days after treatment
# In short: as §2
# DIGSA [30] = assay: Post-emergence herbicidal activity on DIGSA (large crabgrass); format: in vivo, Digitaria sanguinalis; details: post-emergence spray; lowest tested rate with 80% or greater inhibition; about 14 days after treatment
# dicotyledonous species = assay: Pre-emergence test (later test), average GR80 on dicotyledonous species; format: in vivo; details: average over dicotyledonous species
# From the text: (§3) All such uses, and the biological activity enabling such uses, are embraced by the term “herbicidal” herein. Tables 15 and 16 summarize results of tests conducted as described below to determine the pre-emergence herbicidal activity, in the form of a GR80 value, of illustrative compounds of this invention. […] Where herbicidal activity was evident but 80% inhibition was not achieved at the highest rate tested (typically 1000 g/ha), an asterisk (*) is shown in the following tables. Herbicidal activity evident in the form of symptoms of phytotoxicity, in the absence of at least 80% inhibition at any rate, is indicated in the tables by “phyto”. A blank cell in the following tables indicates no herbicidal or phytotoxic response at any rate tested.
# (§4) The pre-emergence tests were conducted by the following procedure. Topsoil was sieved to pass through a 1.27 cm screen. Fertilizer was added to the topsoil and the mixture was then sterilized by heating. The topsoil mixture was placed in a pot and compacted to a depth of 1.0 to 1.25 cm from the top of the pot. Seeds of each of several monocotyledonous and dicotyledonous annual plant species were placed on top of the soil. […]
# (§5) Approximately 14 days after planting and treating, the plants were observed and herbicidal efficacy recorded as percent inhibition by comparison with untreated plants. […]
# monocotyledonous species = assay: Pre-emergence test (later test), GR80 on monocotyledonous species; format: in vivo; details: average over monocotyledonous species
# From the text: as §3, §4, §5
# [31] = lowest tested rate giving 80% or greater inhibition, approx. 14 days after planting and treating, greenhouse
# [32] = racemic mixture vs enantiomers test, rates tested 1000, 650, 300, 200, 100, 65, 30 and 10 g/ha, lowest rate with 80% or greater inhibition
structure (smiles),measurement,setting,value
"CC(CNC(=O)c1cccc(C(F)(F)F)c1)NC(=O)c1cccc(C(F)(F)F)c1 (stereo not shown) [Example 5, N,N′-(1,2-propanediylbis)-3-(trifluoromethyl)benzamide]",Pre-emergence activity (GR80) on ABUTH,ABUTH [1]; [31],1000 g/ha
same,Pre-emergence activity (GR80) ABUTH,ABUTH [1]; [32],"* (Where herbicidal activity was evident but 80% inhibition was not achieved at the highest rate tested (typically 1000 g/ha), an asterisk (*) is shown)"
same,Pre-emergence activity (GR80) on SOLNI,SOLNI [2]; [31],750 g/ha
same,Pre-emergence activity (GR80) SOLNI,SOLNI [2]; [32],300 g/ha
same,Pre-emergence activity (GR80) on AMARE,AMARE [3]; [31],125 g/ha
same,Pre-emergence activity (GR80) AMARE,AMARE [3]; [32],65 g/ha
same,Pre-emergence activity (GR80) on DATST,DATST [4]; [31],500 g/ha
same,Pre-emergence activity (GR80) DATST,DATST [4]; [32],1000 g/ha
same,Pre-emergence activity (GR80) on CHEAL,CHEAL [5]; [31],250 g/ha
same,Pre-emergence activity (GR80) CHEAL,CHEAL [5]; [32],100 g/ha
same,Pre-emergence activity (GR80) on CONAR,CONAR [6]; [31],phyto
same,Pre-emergence activity (GR80) CONAR,CONAR [6]; [32],phyto
same,Pre-emergence activity (GR80) on PORAL,POROL [7]; [31],250 g/ha
same,Pre-emergence activity (GR80) PORAL,POROL [7]; [32],650 g/ha
same,Pre-emergence activity (GR80) on CIRAR,CIRAR; [31],250 g/ha
same,Pre-emergence activity (GR80) CIRAR,CIRAR; [32],"* (Where herbicidal activity was evident but 80% inhibition was not achieved at the highest rate tested (typically 1000 g/ha), an asterisk (*) is shown)"
same,Pre-emergence activity (GR80) on ECHCG,ECHCG [8]; [31],phyto
same,Pre-emergence activity (GR80) ECHCG,ECHCG [8]; [32],phyto
same,Pre-emergence activity (GR80) on PANMI,PANMI [9]; [31],phyto
same,Pre-emergence activity (GR80) PANMI,PANMI [9]; [32],650 g/ha
same,Pre-emergence activity (GR80) on SORHA,SORHA [10]; [31],phyto
same,Pre-emergence activity (GR80) SORHA,SORHA [10]; [32],phyto
same,Pre-emergence activity (GR80) on SETFA,SETFA [11]; [31],"* (Where herbicidal activity was evident but 80% inhibition was not achieved at the highest rate tested (typically 1000 g/ha), an asterisk (*) is shown)"
same,Pre-emergence activity (GR80) SETFA,SETFA [11]; [32],phyto
same,Pre-emergence activity (GR80) on PANDI,PANDI [12]; [31],500 g/ha
same,Pre-emergence activity (GR80) PANDI,PANDI [12]; [32],650 g/ha
same,Pre-emergence activity (GR80) on SORVU,SORVU [13]; [31],phyto
same,Pre-emergence activity (GR80) SORVU,SORVU [13]; [32],phyto
same,Pre-emergence activity (GR80) on BRAPP,BRAPP [14]; [31],"* (Where herbicidal activity was evident but 80% inhibition was not achieved at the highest rate tested (typically 1000 g/ha), an asterisk (*) is shown)"
same,Pre-emergence activity (GR80) BRAPP,BRAPP [14]; [32],phyto
same,Pre-emergence activity (GR80) on DIGSA,DIGSA [15]; [31],250 g/ha
same,Pre-emergence activity (GR80) DIGSA,DIGSA [15]; [32],200 g/ha
same,Post-emergence activity (GR80) ABUTH,ABUTH [16],1000 g/ha
same,Post-emergence activity (GR80) SOLNI,SOLNI [17],1000 g/ha
same,Post-emergence activity (GR80) AMARE,AMARE [18],250 g/ha
same,Post-emergence activity (GR80) DATST,DATST [19],125 g/ha
same,Post-emergence activity (GR80) CHEAL,CHEAL [20],500 g/ha
same,Post-emergence activity (GR80) CONAR,CONAR [21],750 g/ha
same,Post-emergence activity (GR80) PORAL,POROL [22],750 g/ha
same,Post-emergence activity (GR80) ECHCG,ECHCG [23],[empty]
same,Post-emergence activity (GR80) PANMI,PANMI [24],[empty]
same,Post-emergence activity (GR80) SORHA,SORHA [25],[empty]
same,Post-emergence activity (GR80) SETFA,SETFA [26],[empty]
same,Post-emergence activity (GR80) PANDI,PANDI [27],[empty]
same,Post-emergence activity (GR80) SORVU,SORVU [28],[empty]
same,Post-emergence activity (GR80) BRAPP,BRAPP [29],[empty]
same,Post-emergence activity (GR80) DIGSA,DIGSA [30],[empty]
same,average pre-emergence GR80 on dicotyledonous species,dicotyledonous species,535 g/ha
same,pre-emergence GR80 on monocotyledonous species,monocotyledonous species,1041 g/ha
